From ChEMBL document CHEMBL1137200, “Discovery of a Subnanomolar helical D-tridecapeptide inhibitor of gamma-secretase” (J Med Chem, 2004)
pIC50: −log10 of the molar value.

Target: Gamma-secretase
Assay: Inhibitory activity against Gamma-secretase in detergent-solubilized HeLa cell membranes with recombinant APP-based substrate

Row | SMILES | pIC50
1 | CC[C@H](C)[C@H](NC(=O)[C@@H](NC(=O)[C@@H](NC(=O)C(C)(C)NC(=O)CNC(=O)[C@@H](NC(=O)C(C)(C)NC(=O)[C@H](CC(C)C)NC(=O)CNC(=O)OC(C)(C)C)C(C)C)C(C)C)C(C)C)C(=O)NC(C)(C)C(=O)N[C@H](C(=O)N[C@H](C(=O)NC(C)(C)C(=O)N[C@H](C(=O)N[C@H](C(=O)NC(C)(C)C(=O)OC)[C@@H](C)CC)C(C)C)C(C)C)[C@@H](C)OCc1ccccc1 | 4.96
2 | CC[C@@H](C)[C@@H](NC(=O)[C@H](NC(=O)[C@H](NC(=O)C(C)(C)NC(=O)OC(C)(C)C)C(C)C)C(C)C)C(=O)NC(C)(C)C(=O)N[C@@H](C(=O)N[C@@H](C(=O)NC(C)(C)C(=O)N[C@@H](C(=O)N[C@@H](C(=O)NC(C)(C)C(=O)OC)[C@H](C)CC)C(C)C)C(C)C)[C@H](C)OCc1ccccc1 (single isomer, unassigned) | 7.55
3 | CC[C@@H](C)[C@@H](NC(=O)[C@H](NC(=O)[C@H](NC(=O)OC(C)(C)C)C(C)C)C(C)C)C(=O)NC(C)(C)C(=O)N[C@@H](C(=O)N[C@@H](C(=O)NC(C)(C)C(=O)N[C@@H](C(=O)N[C@@H](C(=O)NC(C)(C)C(=O)OC)[C@H](C)CC)C(C)C)C(C)C)[C@H](C)OCc1ccccc1 | 7.60
4 | CC[C@H](C)[C@H](NC(=O)[C@@H](NC(=O)[C@@H](NC(=O)C(C)(C)NC(=O)OC(C)(C)C)C(C)C)C(C)C)C(=O)NC(C)(C)C(=O)N[C@H](C(=O)N[C@H](C(=O)NC(C)(C)C(=O)N[C@H](C(=O)N[C@H](C(=O)NC(C)(C)C(=O)OC)[C@@H](C)CC)C(C)C)C(C)C)[C@@H](C)OCc1ccccc1 | 5.51
5 | CC[C@H](C)[C@H](NC(=O)[C@@H](NC(=O)[C@@H](NC(=O)OC(C)(C)C)C(C)C)C(C)C)C(=O)NC(C)(C)C(=O)N[C@H](C(=O)N[C@H](C(=O)NC(C)(C)C(=O)N[C@H](C(=O)N[C@H](C(=O)NC(C)(C)C(=O)OC)[C@@H](C)CC)C(C)C)C(C)C)[C@@H](C)OCc1ccccc1 | 5.00
6 | CC[C@@H](C)[C@@H](NC(=O)[C@H](NC(=O)[C@H](NC(=O)C(C)(C)NC(=O)CNC(=O)[C@H](NC(=O)C(C)(C)NC(=O)[C@@H](CC(C)C)NC(=O)OC(C)(C)C)C(C)C)C(C)C)C(C)C)C(=O)NC(C)(C)C(=O)N[C@@H](C(=O)N[C@@H](C(=O)NC(C)(C)C(=O)N[C@@H](C(=O)N[C@@H](C(=O)NC(C)(C)C(=O)OC)[C@H](C)CC)C(C)C)C(C)C)[C@H](C)OCc1ccccc1 | 7.80
7 | CC[C@@H](C)[C@@H](NC(=O)[C@H](NC(=O)[C@H](NC(=O)C(C)(C)NC(=O)CNC(=O)[C@H](NC(=O)OC(C)(C)C)C(C)C)C(C)C)C(C)C)C(=O)NC(C)(C)C(=O)N[C@@H](C(=O)N[C@@H](C(=O)NC(C)(C)C(=O)OC)C(C)C)[C@H](C)OCc1ccccc1 | 7.05
8 | CC[C@H](C)[C@H](NC(=O)[C@@H](NC(=O)[C@@H](NC(=O)C(C)(C)NC(=O)CNC(=O)[C@@H](NC(=O)C(C)(C)NC(=O)[C@H](CC(C)C)NC(=O)OC(C)(C)C)C(C)C)C(C)C)C(C)C)C(=O)NC(C)(C)C(=O)N[C@H](C(=O)N[C@H](C(=O)NC(C)(C)C(=O)N[C@H](C(=O)N[C@H](C(=O)NC(C)(C)C(=O)OC)[C@@H](C)CC)C(C)C)C(C)C)[C@@H](C)OCc1ccccc1 | 5.33
9 | CC[C@@H](C)[C@@H](NC(=O)[C@H](NC(=O)[C@H](NC(=O)C(C)(C)NC(=O)CNC(=O)[C@H](NC(=O)C(C)(C)NC(=O)[C@@H](CC(C)C)NC(=O)CNC(=O)OC(C)(C)C)C(C)C)C(C)C)C(C)C)C(=O)NC(C)(C)C(=O)N[C@@H](C(=O)N[C@@H](C(=O)NC(C)(C)C(=O)N[C@@H](C(=O)N[C@@H](C(=O)NC(C)(C)C(=O)OC)[C@H](C)CC)C(C)C)C(C)C)[C@H](C)OCc1ccccc1 | 7.59
10 | CC[C@H](C)[C@H](NC(=O)[C@@H](NC(=O)[C@@H](NC(=O)C(C)(C)NC(=O)CNC(=O)[C@@H](NC(=O)OC(C)(C)C)C(C)C)C(C)C)C(C)C)C(=O)NC(C)(C)C(=O)N[C@H](C(=O)N[C@H](C(=O)NC(C)(C)C(=O)OC)C(C)C)[C@@H](C)OCc1ccccc1 | 4.52

Next, values leading:

Row | pIC50 | SMILES
11 | 6.04 | CC[C@H](C)[C@H](NC(=O)[C@@H](NC(=O)[C@@H](NC(=O)C(C)(C)NC(=O)CNC(=O)[C@@H](NC(=O)C(C)(C)NC(=O)OC(C)(C)C)C(C)C)C(C)C)C(C)C)C(=O)NC(C)(C)C(=O)N[C@H](C(=O)N[C@H](C(=O)NC(C)(C)C(=O)N[C@H](C(=O)N[C@H](C(=O)NC(C)(C)C(=O)OC)[C@@H](C)CC)C(C)C)C(C)C)[C@@H](C)OCc1ccccc1
12 | 9.85 | CC[C@@H](C)[C@@H](NC(=O)[C@H](NC(=O)[C@H](NC(=O)C(C)(C)NC(=O)CNC(=O)[C@H](NC(=O)OC(C)(C)C)C(C)C)C(C)C)C(C)C)C(=O)NC(C)(C)C(=O)N[C@@H](C(=O)N[C@@H](C(=O)NC(C)(C)C(=O)N[C@@H](C(=O)N[C@@H](C(=O)NC(C)(C)C(=O)OC)[C@H](C)CC)C(C)C)C(C)C)[C@H](C)OCc1ccccc1
13 | 7.85 | CC[C@@H](C)[C@@H](NC(=O)[C@H](NC(=O)[C@H](NC(=O)C(C)(C)NC(=O)CNC(=O)[C@H](NC(=O)C(C)(C)NC(=O)OC(C)(C)C)C(C)C)C(C)C)C(C)C)C(=O)NC(C)(C)C(=O)N[C@@H](C(=O)N[C@@H](C(=O)NC(C)(C)C(=O)N[C@@H](C(=O)N[C@@H](C(=O)NC(C)(C)C(=O)OC)[C@H](C)CC)C(C)C)C(C)C)[C@H](C)OCc1ccccc1
14 | 6.11 | CC[C@H](C)[C@H](NC(=O)[C@@H](NC(=O)[C@@H](NC(=O)C(C)(C)NC(=O)CNC(=O)[C@@H](NC(=O)OC(C)(C)C)C(C)C)C(C)C)C(C)C)C(=O)NC(C)(C)C(=O)N[C@H](C(=O)N[C@H](C(=O)NC(C)(C)C(=O)N[C@H](C(=O)N[C@H](C(=O)NC(C)(C)C(=O)OC)[C@@H](C)CC)C(C)C)C(C)C)[C@@H](C)OCc1ccccc1
15 | 7.92 | CC[C@@H](C)[C@@H](NC(=O)[C@H](NC(=O)[C@H](NC(=O)C(C)(C)NC(=O)CNC(=O)OC(C)(C)C)C(C)C)C(C)C)C(=O)NC(C)(C)C(=O)N[C@@H](C(=O)N[C@@H](C(=O)NC(C)(C)C(=O)N[C@@H](C(=O)N[C@@H](C(=O)NC(C)(C)C(=O)OC)[C@H](C)CC)C(C)C)C(C)C)[C@H](C)OCc1ccccc1
16 | 6.44 | CC[C@H](C)[C@H](NC(=O)[C@@H](NC(=O)[C@@H](NC(=O)C(C)(C)NC(=O)CNC(=O)OC(C)(C)C)C(C)C)C(C)C)C(=O)NC(C)(C)C(=O)N[C@H](C(=O)N[C@H](C(=O)NC(C)(C)C(=O)N[C@H](C(=O)N[C@H](C(=O)NC(C)(C)C(=O)OC)[C@@H](C)CC)C(C)C)C(C)C)[C@@H](C)OCc1ccccc1

Target: Gamma-secretase
Assay: Inhibitory activity against Gamma-secretase from APP-transfected CHO cells
Assay type: functional, cell-based, Homo sapiens

Row | pIC50 | SMILES
17 | 8.05 | CC[C@@H](C)[C@@H](NC(=O)[C@H](NC(=O)[C@H](NC(=O)C(C)(C)NC(=O)CNC(=O)[C@H](NC(=O)OC(C)(C)C)C(C)C)C(C)C)C(C)C)C(=O)NC(C)(C)C(=O)N[C@@H](C(=O)N[C@@H](C(=O)NC(C)(C)C(=O)N[C@@H](C(=O)N[C@@H](C(=O)NC(C)(C)C(=O)OC)[C@H](C)CC)C(C)C)C(C)C)[C@H](C)OCc1ccccc1
